Laboratory results from patent EP0138020B1, “Anti-adhesive prophylactica and medicines containing a secretolytically active benzylamine derivative” (priority 1983, dated 1985).
Structures can show the parent of a compound that is named as a salt.

Tests used:
[1] = test system: Klebsiella pneumoniae Weingarten 14 (Adhäsion an menschlichen Lungen-Epithelzellen ATCC, CCL5, L-132); test: Direct effect in vitro: adhesion of 14C-labelled bacteria to an epithelial cell monolayer; assay type: cell-based; settings: L132, 3 h, pH 5, read-out: weniger Keime auf den Epithelzellen im Vergleich zur Kontrolle
From the text: • a. Der Titer der lebenden Zellen, z.B. von menschlichen Lungen-Epithelzellen wie ATCC, CCL5, L-132, - zu denen nachgewiesenerweise die Verbindungen der obigen allgemeinen Formel I eine sehr hohe Affinität aufweisen, die mit der zum intakten Organ vergleichbar ist - wird mittels Vitalfärbung mit Trypan blue und Auszählung in einer Fuchs-Rosenthal-Zählkammer bestimmt und durch Verdünnung mit Kulturmedium, z.B. Minimum Essential Medium plus 10 % fötales Kälberserum plus 0,1 % Kanamycin, auf 7 x 10⁴ Zellen/ml eingestellt. Je 3 ml dieser Suspension werden in Glasszintillationsfläschchen gefüllt, die durch eine übliche Behandlung für die Anheftung der Epithelzellen auf die Glasoberfläche vorbereitet wurden. Die Inkubation bis zur Ausbildung eines geschlossenen Monolayers erfolgt über 3 Tage bei 37°C und 3 % CO₂. Ein Monolayer entspricht 5 x 10⁶ Zellen pro Szintillationsfläschchen. • b. Die Bakterien, z.B. Klebsiella pneumoniae Weingarten 14, werden in zwei Passagen von je 24 Stunden bei 37° C in Brain Heart Infusion Broth (BHJ) bis zur logarithmischen Wachstumsphase gezüchtet. Während der 2. Passage erfolgt die radioaktive Markierung durch die Zugabe von 1,2-¹⁴C-Azetat zum Nährmedium. Danach wird die Kultur zur Entfernung nichtinkorporierter Radioaktivität zweimal mit PBS (Phosphate buffered saline) gewaschen. […]

[2] = Acute oral toxicity (LD50); settings: mouse, in vivo, Maus, p.o., read-out: LD₅₀
From the text: Die Verbindungen der obigen allgemeinen Formel I und deren physiologisch verträgliche Säureadditionssalze sind untoxisch und somit gut verträglich. So weist beispielsweise an der Maus • N-Methyl-N-(2-amino-3,5-dibrom-benzyl)-cyclohexylaminhydrochlorid eine LD₅₀ von >10 g/kg p.o., • N-(2-Amino-3,5-dibrom-benzyl)-trans-4-hydroxy-cyclohexylaminhydrochlorid eine von 2,72 g/kg p.o. und • die übrigen Verbindungen eine von >1 g/kg p.o. auf.

[3] = test system: Klebsiella pneumoniae Weingarten 14; test: In vivo lung infection: bacterial count in lung homogenate; settings: relative to Tylose control = 100; treated 8-10 h before, 15 min before and 4-5 h after infection, preferably i.m. 20-40 mg/kg; lungs preferably 10 h after infection
Protocol: • a. Die Kultur der Bakterien erfolgt wie oben beschrieben, allerdings ohne radioaktive Markierung. • b. Weibliche Albino-Wistar Ratten oder weibliche SPF-Mäuse (Chbb:NMRI) werden i.p., i.v., i.m., p.o., vorzugsweise i.m. 8-10 Stunden vor, 15 Minuten vor und 4-5 Stunden nach der Infektion mit 2-200 mg, vorzugsweise 20-40 mg Benzylamin pro kg Körpergewicht bzw. Tylose (Kontrolle) behandelt. Die Bakteriensuspension (5 x 10⁸-10⁻⁹Bakterien/ml physiologischer Kochsalzlösung) wird in einer Vernebelungskammer mit 0,35 ml/ Minute über 10 Minuten vernebelt. Alternativ werden 10⁶ Keime in 0,05 ml physiologischer Kochsalzlösung i.n. in den Nasengang unter einer Inhalationsnarkose, z.B. mit Chloroform, appliziert. Jeweils ein Kollektiv von Tieren wird 1-10, vorzugsweise 10 Stunden nach der Infektion seziert, die Lungen steril entnommen und die Keime im Lungenhomogenat quantitativ durch Anzüchtung auf McConkey-Agar ermittelt. Die Bakterienkonzentration wird in Keimzahl/g Lunge bestimmt.

[4] = test system: Klebsiella pneumoniae Weingarten 14 (Adhäsion an menschlichen Lungen-Epithelzellen ATCC, CCL5, L-132); test: Indirect effect ex vivo: bacterial adhesion to epithelial cells after incubation with lung lavage fractions from treated rats; assay type: cell-based; settings: rats 25 mg/kg p.o. over 5 days, vs Tylose control animals
From the text: • a. Der Titer der lebenden Zellen, z.B. von menschlichen Lungen-Epithelzellen wie ATCC, CCL5, L-132, - zu denen nachgewiesenerweise die Verbindungen der obigen allgemeinen Formel I eine sehr hohe Affinität aufweisen, die mit der zum intakten Organ vergleichbar ist - wird mittels Vitalfärbung mit Trypan blue und Auszählung in einer Fuchs-Rosenthal-Zählkammer bestimmt und durch Verdünnung mit Kulturmedium, z.B. Minimum Essential Medium plus 10 % fötales Kälberserum plus 0,1 % Kanamycin, auf 7 x 10⁴ Zellen/ml eingestellt. Je 3 ml dieser Suspension werden in Glasszintillationsfläschchen gefüllt, die durch eine übliche Behandlung für die Anheftung der Epithelzellen auf die Glasoberfläche vorbereitet wurden. Die Inkubation bis zur Ausbildung eines geschlossenen Monolayers erfolgt über 3 Tage bei 37°C und 3 % CO₂. Ein Monolayer entspricht 5 x 10⁶ Zellen pro Szintillationsfläschchen. • b. Die Bakterien, z.B. Klebsiella pneumoniae Weingarten 14, werden in zwei Passagen von je 24 Stunden bei 37° C in Brain Heart Infusion Broth (BHJ) bis zur logarithmischen Wachstumsphase gezüchtet. Während der 2. Passage erfolgt die radioaktive Markierung durch die Zugabe von 1,2-¹⁴C-Azetat zum Nährmedium. Danach wird die Kultur zur Entfernung nichtinkorporierter Radioaktivität zweimal mit PBS (Phosphate buffered saline) gewaschen. Mit PBS pH 5,5 wird die Kultur im Photometer auf eine Transmission von 35 % eingestellt, was durch Ermittlung der Lebendkeimzahl einem Titer von 5 x 10⁸ Bakterien/ml entspricht. • c. Die Bakterien-Kultur wird abzentrifugiert, PBS abgenommen und durch ein gleiches Volumen Benzylamin-Lösung in PBS pH 5,5 ersetzt. Für den Kontrollwert wird statt der Benzylamin-Lösung PBS pH 5,5 verwendet. Das Nährmedium der Zellen wird abgenommen, der Monolayer (= 5 x 10⁶ Zellen) wird zweimal mit PBS pH 5,5 gespült und mit 1 ml Bakterien-Benzylamin-Lösung (= 5 x 10⁸ Bakterien) überschichtet. Die Inkubation erfolgt 3 Stunden bei 37° C. Danach wird die Bakterien-Benzylamin-Lösung abgenommen und der Monolayer zur Entfernung nicht-adhärenter Bakterien zweimal mit PBS pH 5,5 gespült. Nach Zugabe von Instagel wird die Radioaktivität der gebundenen Bakterien im Szintillationszähler gemessen. • d. Ergebnis: Mit der Verbindung A (50 |g/ml) wurden im Vergleich zur Kontrolle 15 % weniger Keime auf den Epithelzellen nachgewiesen, mit der Verbindung B (50 |g/ml) 20 %.
• a. Die Kultur der Epithelzellen erfolgt wie oben beschrieben. • b. Die Kultur der Bakterien erfolgt wie oben beschrieben. • c. Männliche SPF-Ratten (Chbb:THOM) werden über 5 Tage p.o. mit 25 mg Benzylamin pro kg Körpergewicht bzw. mit Tylose (Kontrolle) behandelt. Durch Bronchoalveolar-Lavage mit isotoner Harnstofflösung wird das Lungenwaschwasser gewonnen und gepoolt. 100 ml davon werden mittels präparativer Isoelektrofokussierung in 30 proteinhaltige Gelfraktionen aufgetrennt. Nach Bestimmung des isoelektrischen Punktes der einzelnen Fraktionen mit einer Oberflächen-Elektrode werden die Proteine mit 3 ml PBS pH 5,5 pro Fraktion vom Gel eluiert. Die 30 Fraktionen werden auf pH 5,5 eingestellt. • d. Die Bakterienkultur wird abzentrifugiert, PBS abgenommen und durch ein gleiches Volumen Lungenwaschwasserfraktion ersetzt. Für den Kontrollwert wird statt der Lungenwaschwasserfraktionen PBS pH 5,5 und isotone Harnstofflösung verwendet. Nach einer Inkubation von 2 Stunden bei 37° C wird die Bakterienkultur erneut abzentrifugiert, Lungenwaschwasserfraktionen bzw. PBS bzw. Harnstoff abgenommen und durch ein gleiches Volumen PBS pH 5,5 ersetzt. Das Nährmedium der Zellen wird abgenommen, der Monolayer (= 5 x 10⁶ Zellen) wird zweimal mit PBS pH 5,5 gespült und mit 1 ml Bakteriensuspension (= 5 x 10⁸ Bakterien) überschichtet. Die Inkubation erfolgt 2 Stunden bei 37° C Danach wird die Bakteriensuspension abgenommen und der Monolayer zur Entfernung nicht-adhärenter Bakterien zweimal mit PBS pH 5,5 gespült. Nach Zugabe von Instagel wird die Radioaktivität der gebundenen Bakterien im Szintillationszähler gemessen. • e. […]

SMILES	inhibition at 50 µg/mL [1] [%]	LD50 [2] [mg/kg]	% Keimzahl/g Lunge [3] [%]	% Hemmung der Adhäsivität ([4]; Isoelektrischer Punkt der Lungenwaschwasserfraktion 4,0) [%]	% Hemmung der Adhäsivität ([4]; Isoelektrischer Punkt der Lungenwaschwasserfraktion 4,4) [%]	% Hemmung der Adhäsivität ([4]; Isoelektrischer Punkt der Lungenwaschwasserfraktion 4,9) [%]	% Hemmung der Adhäsivität ([4]; Isoelektrischer Punkt der Lungenwaschwasserfraktion 5,2) [%]	% Hemmung der Adhäsivität ([4]; Isoelektrischer Punkt der Lungenwaschwasserfraktion 5,8) [%]	% Hemmung der Adhäsivität ([4]; Isoelektrischer Punkt der Lungenwaschwasserfraktion 6,7) [%]	% Hemmung der Adhäsivität ([4]; Isoelektrischer Punkt der Lungenwaschwasserfraktion 7,6) [%]	% Hemmung der Adhäsivität ([4]; Isoelektrischer Punkt der Lungenwaschwasserfraktion 8,6) [%]
CN(Cc1cc(Br)cc(Br)c1N)C1CCCCC1 [Verbindung A, N-Methyl-N-(2-amino-3,5-dibrom-benzyl)-cyclohexylaminhydrochlorid]	15	> 10000	49	–	–	–	–	–	–	–	–
Nc1c(Br)cc(Br)cc1CN[C@H]1CC[C@H](O)CC1 [Verbindung B, N-(2-Amino-3,5-dibrom-benzyl)-trans-4-hydroxy-cyclohexylamin-hydrochlorid]	20	2720	31	73	65	65	61	39	67	79	72
